{"source": "paper PMC3621575", "about": "(ACS Chemical Biology, 2012)", "key": {"CDK9": {"tested_on": "CDK9", "settings": "primary chronic lymphocytic leukemia cells; cited from earlier work"}, "PCSTAIRE2": {"tested_on": "PCSTAIRE2", "settings": "primary chronic lymphocytic leukemia cells; cited from earlier work"}, "T. brucei CRK1": {"molecular_target": "T1, T. brucei CRK1 (Trypanosoma brucei brucei, UniProt P38973)", "T1 sequence (P38973 1-301)": "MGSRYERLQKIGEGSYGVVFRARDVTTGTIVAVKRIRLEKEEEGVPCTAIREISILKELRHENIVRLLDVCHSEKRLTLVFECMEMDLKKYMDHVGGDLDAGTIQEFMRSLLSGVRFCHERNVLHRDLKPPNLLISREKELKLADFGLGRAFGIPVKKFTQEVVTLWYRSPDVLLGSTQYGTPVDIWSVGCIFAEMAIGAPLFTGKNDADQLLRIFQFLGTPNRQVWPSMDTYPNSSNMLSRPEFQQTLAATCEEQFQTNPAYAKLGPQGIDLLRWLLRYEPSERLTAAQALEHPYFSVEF", "test": "Kinobead profiling, T. brucei lysate, CRK1", "assay_type": "binding", "settings": "T. brucei cell lysate"}, "[1]": {"tested_on": "human kinome in primary chronic lymphocytic leukemia cells", "settings": "cited from earlier work"}, "CRK7": {"tested_on": "CRK7", "settings": "primary chronic lymphocytic leukemia cells; cited from earlier work"}}}
{"smiles": "CC(C)(C)c1cnc(CSc2cnc(NC(=O)C3CCNCC3)s2)o1", "note": "[BMS-387032]", "values": [{"measurement": "kinobead IC50, CDK9", "setting": "CDK9", "value": "submicromolar"}, {"measurement": "kinobead IC50, PCSTAIRE2", "setting": "PCSTAIRE2", "value": "submicromolar"}, {"measurement": "kinobead inhibition of CRK1", "setting": "T. brucei CRK1", "value": "no inhibition"}, {"measurement": "observed CDKs inhibited", "setting": "[1]", "value": "all of the seven"}, {"measurement": "kinobead IC50, CRK7", "setting": "CRK7", "value": "submicromolar"}]}
